Experimental data published in patent US8013047B2, “Oligo- and poly-carbonates terminated with silicon containing groups as surface modifiers” (priority 2005, dated 2011).

Key:
[1] = Contact angle of extrusion tapes, compounds as bulk material or additive (sessile drop, water); format: physicochemical; conditions: 5% Tinuvin 1577 in 95% Makrolon 3108 FBL, extrusion tape
Description: Appropriate amounts of each compound of the formula I are dried in a vacuum oven for eight hours at 120° C. They are extruded in a twin-screw extruder (MiniLab extruder from Thermo Electron Corporation) equipped with a flat die. In this way, tapes are produced with a width of 5 mm and a thickness of around 0.5 mm. The processing temperature is around 280° C. All produced tapes have a transparent visual appearance. The contact angle of the produced tapes are measured with a Dataphysics OCA 30 contact angle device, using the sessile drop method and water as measuring liquid.

[2] = test system: Staphylococcus aureus ATCC 6538; experiment: Adhesion of microbes onto polycarbonate extrusion sheets (microtiterplate immunological assay); format: cell-based; conditions: 5% Tinuvin 1577 alone in polycarbonate sheet; residual adhesion relative to control = 100%; 60 min incubation
Description: (§1) A polycarbonate powder [Makrolon 3108 FBL (RTM) from Bayer] is dried in a vacuum oven for eight hours at 120° C. Appropriate amounts of each compound of the formula I is added to the dried polycarbonate powder to obtain formulations containing up to 10% by weight of the compound of the formula I. The formulations are mixed in a Grindo Mix GM 200 and compounded to pellets in a twin-screw extruder (Haake DS16-L/D25 from Thermo Electron Corporation) and further extruded to sheets with a width of 110 mm and thickness of 0.2 mm using a single-screw extruder equipped with a flat die (Collin CR-136/350). The processing temperature is around 280° C. All produced sheets have a transparent visual appearance.
In order to measure the reduced adhesion of microbes onto polymer surfaces the following testing procedure is applied:
The test system is microtiterplate based and is conducted according to the method described in Nature Medicine Vol. 6, No. 8, 1053-1056. Samples equipped with active compounds and untreated control samples are prepared to obtain a same sample size of max. 7×4 mm. […] The microbial cells adhering to the pieces are detected in an immunological assay using specific antibodies against the test strain, which are then detected […]. […]

[3] = Contact angle of polycarbonate extrusion sheets (sessile drop, water); format: physicochemical; conditions: 5% Tinuvin 1577 alone in polycarbonate extrusion sheet
Description: as §1
The surface properties were evaluated by measuring the contact angle of the polycarbonate sheets described in Example 16 with a Dataphysics OCA 30 contact angle device, using the sessile drop method and water as measuring liquid.

CCCCCCOc1ccc(-c2nc(-c3ccccc3)nc(-c3ccccc3)n2)c(O)c1 [Tinuvin 1577]
Contact angle (°) [1]: 86 ° | Adhesion of Staphylococcus aureus ATCC 6538 on polycarbonate in % [2]: 104% | Contact angle (°) [3]: 86 °
